Reference: PubChem BioAssay AID1963445 (Molecular Pharmacology Branch, DTP, NCI, 2024)
Several values for one entry are separate records, joined by “and”; a condition that tells them apart may be missing. Equal values may be shown once. One block for each molecule: values may come before it.

System: MCF7 complex spheroid growth, % test/control
Assay: Anticancer human tumor MCF7 cell line growth inhibition [Asc];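 further: spheroids exposed to compounds for 7 days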;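 on viability, T/C: 100% = DMSO vehicle control wells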
Settings: for viability, T/C: stronger effect = lower value
Method: Multicellular complex tumor spheroid response to apoptosis pathway targeting inhibitors Alrizomadlin, Pelcitoclax, and Dasminapant in combination with a variety of drugs and investigational agents in selected tumor cell lines
The MDM2 inhibitor alrizomadlin, the Bcl-2/Bcl-xL inhibitor pelcitoclax, and the IAPs inhibitor dasminapant were evaluated both individually and in combination with standard of care and investigational anticancer small molecules within a complex spheroid model of solid tumors. . Complex spheroids include a stromal component modeled by human endothelial cells (HUVEC) and fibroblasts modeled by human mesenchymal stem cells (MSCs). The concentration ranges selected for each drug and investigational agent were based upon clinically achievable concentrations if the clinical Cmax of the agent was known.
Compounds. The drugs and investigational agents: alrizomadlin (APG-115; NSC831270), pelcitoclax (APG-1252; NSC835773), dasminapant (APG-1387;NSC834197), TAK-243 (NSC785004), copanlisib (NSC809693), olaparib (NSC753686), talazoparib (NSC767125), cobimetinib (NSC 768068), eltanexor (KPT-8602, NSC 794443), abemaciclib (NSC 768073), sotorasib (NSC818433), adagrasib (NSC 831453), MRTX-1133 (NSC 836407), Iadademestat (ORY1001, NSC 806812), and RMC-4630 (NSC839698), were obtained from the NCI Developmental Therapeutics Program Chemical Repository. The FDA-approved anticancer drug set is available from the Developmental Therapeutics Program at https://dtp.cancer.gov/organization/dscb/obtaining/available plates.htm. […] The stock solutions were prepared in dimethyl sulfoxide (DMSO, Sigma-Aldrich, St. Louis, MO, cat. D2650) at 800-fold the tested concentration and stored at -70 degrees C prior to their use. All drugs and investigational agents were tested over a range starting from a high concentration at or near the clinical Cmax and decreasing in half-log increments. If the clinical Cmax for an agent had not been determined, the highest concentration tested was 10 microM.
The patient-derived cancer (PDC) cell lines include five colon adenocarcinomas: 186277-243-T-J2-PDC, 616215-338-R-J1-PDC, 439559-082-T-J2-PDC, 463943-066-T-J2-PDC, and 519858-162-T-J1-PDC; three pancreatic carcinomas: 323965-272-R-J2-PDC, 521955-158-R6-J3-PDC, and 521955-158-R2-J5-PDC; two uterine sarcomas: 327498-152-R-J2-PDC and 993429-296-R-J1-PDC; two rhabdomyosarcomas: 755483-174-R-J1-PDC and 772245-204-R-J1-PDC; two soft tissue sarcomas: 126254-015-R-J1-PDC and 494315-158-R-J1-PDC; two malignant fibrous histiocytomas: 317291-083-R-J1-PDC and 596521-263-R-J1-PDC; two breast carcinomas: 171881-019-R-J1-PDC and 885512-296-R-J2-PDC; and one ovarian carcinoma: 6556581-035-R-J-PDC were obtained from the NCI PDMR, (https://pdmr.cancer.gov). The established cell lines HSSY-2 synovial sarcoma (RRID:CVCL 8719), SYO-1 synovial sarcoma (RRID:CVCL_7146), MPNST malignant peripheral neural sheath tumor were obtained from the Sloan Kettering Institute. The following established cell lines were purchased from the American Type Culture Collection (ATCC, Manassas, VA), Sor the received from the NCI repository:, PANC-1 pancreatic carcinoma (CRL-1469, RRID:CVCL_0480), OVCAR-5 ovarian carcinoma (RRID:CVCL_1628), OVCAR-8 ovarian carcinoma (RRID:CVCL_1629), , MCF-7 breast carcinoma (CRL-12584, RRID:CVCL_0031), MDA-MB-231 breast carcinoma (CRL-12532, RRID:CVCL_0062), NCI-H1876 small cell lung carcinoma (CRL-5902, RRID:CVCL_1503), NCI-H510A small cell lung carcinoma (HTB-184, RRID:CVCL_1565), NCI-H1417 (CRL-5869, RRID:CVCL_1469), and NCI-H196 small cell lung carcinoma (CRL-5823, RRID:CVCL_1509). Dr. Peter Houghton (Greehey Children's Cancer Research Institute, University of Texas Health Science Center, San Antonio, TX) provided Rh-18 rhabdomyosarcoma (RRID:CVCL_1659). Pooled donor human umbilical vein endothelial cells (HUVEC, Lonza, cat. CC-2519) and human mesenchymal stem cells (hMSC, Lonza, cat. PT-2501) were purchased from Lonza (Walkersville, MD).
Cell Culture. […]

[1] = curve of first compound, second compound 0.0316 µM
[2] = curve of first compound, second compound 0.1 µM
[3] = curve of first compound, second compound 0.316 µM
[4] = curve of first compound, second compound 1 µM
[5] = curve of first compound, second compound 3.16 µM
[6] = curve of first compound, second compound 10 µM

IC50 [1]: 20.6 nM
IC50 [2]: 44.3 nM
IC50 [3]: 32.1 nM
IC50 [4]: 22.5 nM
IC50 [5]: 39.4 nM
IC50 [6]: 17.2 nM
SMILES: Cn1ncnc1[C@H]1c2n[nH]c(=O)c3cc(F)cc(c23)N[C@@H]1c1ccc(F)cc1 + Cc1c(S(C)(=O)=O)c(-c2cc(F)cc(N3CCN(c4ccc(NS(=O)(=O)c5ccc(NC(CCN6CCC(C(=O)OCCCP(=O)(O)O)CC6)CSc6ccccc6)c(S(=O)(=O)C(F)(F)F)c5)cc4)CC3)c2)c(-c2ccc(Cl)cc2)n1C(C)C
viability, T/C (second compound 0.0316 µM, first compound 0.000316 µM): 116%
viability, T/C (second compound 0.0316 µM, first compound 0.001 µM): 113%
viability, T/C (second compound 0.0316 µM, first compound 0.00316 µM): 74.6%
viability, T/C (second compound 0.0316 µM, first compound 0.01 µM): 59.4%
viability, T/C (second compound 0.0316 µM, first compound 0.0316 µM): 50.7%
viability, T/C (second compound 0.0316 µM, first compound 0.1 µM): 39.7%
viability, T/C (second compound 0.1 µM, first compound 0.000316 µM): 100%
viability, T/C (second compound 0.1 µM, first compound 0.001 µM): 89.8%
viability, T/C (second compound 0.1 µM, first compound 0.00316 µM): 78.9%
viability, T/C (second compound 0.1 µM, first compound 0.01 µM): 57.7%
viability, T/C (second compound 0.1 µM, first compound 0.0316 µM): 50.5%
viability, T/C (second compound 0.1 µM, first compound 0.1 µM): 49%
viability, T/C (second compound 0.316 µM, first compound 0.000316 µM): 103%
viability, T/C (second compound 0.316 µM, first compound 0.001 µM): 75%
viability, T/C (second compound 0.316 µM, first compound 0.00316 µM): 80.9%
viability, T/C (second compound 0.316 µM, first compound 0.01 µM): 54.2%
viability, T/C (second compound 0.316 µM, first compound 0.0316 µM): 50.9%
viability, T/C (second compound 0.316 µM, first compound 0.1 µM): 42.9%
viability, T/C (second compound 1 µM, first compound 0.000316 µM): 106%
viability, T/C (second compound 1 µM, first compound 0.001 µM): 81.7%
viability, T/C (second compound 1 µM, first compound 0.00316 µM): 95.7%
viability, T/C (second compound 1 µM, first compound 0.01 µM): 66.7%
viability, T/C (second compound 1 µM, first compound 0.0316 µM): 44.8%
viability, T/C (second compound 1 µM, first compound 0.1 µM): 39.3%
viability, T/C (second compound 3.16 µM, first compound 0.000316 µM): 110%
viability, T/C (second compound 3.16 µM, first compound 0.001 µM): 86.8%
viability, T/C (second compound 3.16 µM, first compound 0.00316 µM): 89.4%
viability, T/C (second compound 3.16 µM, first compound 0.01 µM): 57.3%
viability, T/C (second compound 3.16 µM, first compound 0.0316 µM): 50.6%
viability, T/C (second compound 3.16 µM, first compound 0.1 µM): 46.5%
viability, T/C (second compound 10 µM, first compound 0.000316 µM): 85.3%
viability, T/C (second compound 10 µM, first compound 0.001 µM): 83.6%
viability, T/C (second compound 10 µM, first compound 0.00316 µM): 74.6%
viability, T/C (second compound 10 µM, first compound 0.01 µM): 51.7%
viability, T/C (second compound 10 µM, first compound 0.0316 µM): 49.9%
viability, T/C (second compound 10 µM, first compound 0.1 µM): 36.7%

IC50 (curve of compound): 45 nM and 53.6 nM and 22.4 nM
SMILES: COc1c(OCCCN2CCOCC2)ccc2c3n(c(=NC(=O)c4cnc(N)nc4)nc12)CCN3
viability, T/C (compound 0.00316 µM): 79.3% and 87.5% and 83.6%
viability, T/C (compound 0.01 µM): 76.8% and 80.8% and 61.1%
viability, T/C (compound 0.0316 µM): 56.2% and 55.1% and 46.3%
viability, T/C (compound 0.1 µM): 29.5% and 33.3% and 43%
viability, T/C (compound 0.316 µM): 12.4% and 14.6% and 17.5%
viability, T/C (compound 1 µM): 8.01% and 9.89% and 10%

IC50 [1]: 134 nM
IC50 [2]: 110 nM
IC50 [3]: 90 nM
IC50 [4]: 82 nM
IC50 [5]: 60.3 nM
IC50 [6]: 73.5 nM
SMILES: CCN1C(C(=O)NC23CCC(C(=O)O)(CC2)CC3)C(c2cccc(Cl)c2F)C2(C(=O)Nc3cc(Cl)ccc32)C12CCCCC2 (stereo unspecified) + Cc1c(S(C)(=O)=O)c(-c2cc(F)cc(N3CCN(c4ccc(NS(=O)(=O)c5ccc(NC(CCN6CCC(C(=O)OCCCP(=O)(O)O)CC6)CSc6ccccc6)c(S(=O)(=O)C(F)(F)F)c5)cc4)CC3)c2)c(-c2ccc(Cl)cc2)n1C(C)C
viability, T/C (second compound 0.0316 µM, first compound 0.00949 µM): 96.9%
viability, T/C (second compound 0.0316 µM, first compound 0.03 µM): 97.5%
viability, T/C (second compound 0.0316 µM, first compound 0.0949 µM): 48.9%
viability, T/C (second compound 0.0316 µM, first compound 0.3 µM): 38.3%
viability, T/C (second compound 0.0316 µM, first compound 0.949 µM): 22.7%
viability, T/C (second compound 0.0316 µM, first compound 3 µM): 12.1%
viability, T/C (second compound 0.1 µM, first compound 0.00949 µM): 108%
viability, T/C (second compound 0.1 µM, first compound 0.03 µM): 93.7%
viability, T/C (second compound 0.1 µM, first compound 0.0949 µM): 46%
viability, T/C (second compound 0.1 µM, first compound 0.3 µM): 34.5%
viability, T/C (second compound 0.1 µM, first compound 0.949 µM): 15.2%
viability, T/C (second compound 0.1 µM, first compound 3 µM): 11.4%
viability, T/C (second compound 0.316 µM, first compound 0.00949 µM): 95.2%
viability, T/C (second compound 0.316 µM, first compound 0.03 µM): 79.6%
viability, T/C (second compound 0.316 µM, first compound 0.0949 µM): 45%
viability, T/C (second compound 0.316 µM, first compound 0.3 µM): 28.9%
viability, T/C (second compound 0.316 µM, first compound 0.949 µM): 15%
viability, T/C (second compound 0.316 µM, first compound 3 µM): 9.79%
viability, T/C (second compound 1 µM, first compound 0.00949 µM): 91.9%
viability, T/C (second compound 1 µM, first compound 0.03 µM): 74.4%
viability, T/C (second compound 1 µM, first compound 0.0949 µM): 42.5%
viability, T/C (second compound 1 µM, first compound 0.3 µM): 33.4%
viability, T/C (second compound 1 µM, first compound 0.949 µM): 11.6%
viability, T/C (second compound 1 µM, first compound 3 µM): 14.9%
viability, T/C (second compound 3.16 µM, first compound 0.00949 µM): 97.9%
viability, T/C (second compound 3.16 µM, first compound 0.03 µM): 63.8%
viability, T/C (second compound 3.16 µM, first compound 0.0949 µM): 44.2%
viability, T/C (second compound 3.16 µM, first compound 0.3 µM): 18.8%
viability, T/C (second compound 3.16 µM, first compound 0.949 µM): 12.1%
viability, T/C (second compound 3.16 µM, first compound 3 µM): 11.5%
viability, T/C (second compound 10 µM, first compound 0.00949 µM): 188%
viability, T/C (second compound 10 µM, first compound 0.03 µM): 153%
viability, T/C (second compound 10 µM, first compound 0.0949 µM): 30.6%
viability, T/C (second compound 10 µM, first compound 0.3 µM): 27.4%
viability, T/C (second compound 10 µM, first compound 0.949 µM): 12.2%
viability, T/C (second compound 10 µM, first compound 3 µM): 12.3%
